Data taken from PMC7955167 (Structure(London, England:1993), 2021).
Where a chain is given by its changes, count along the chain named. Names may count otherwise.

Tests used:
[1] = biological target: T1, IRAK3 (Homo sapiens, UniProt Q9Y616); assay: thermal shift assay dose response with isothermal analysis at […]°C; assay type: binding
T1 construct: pseudokinase domain, residues 145–454
T1 sequence (Q9Y616 145-454): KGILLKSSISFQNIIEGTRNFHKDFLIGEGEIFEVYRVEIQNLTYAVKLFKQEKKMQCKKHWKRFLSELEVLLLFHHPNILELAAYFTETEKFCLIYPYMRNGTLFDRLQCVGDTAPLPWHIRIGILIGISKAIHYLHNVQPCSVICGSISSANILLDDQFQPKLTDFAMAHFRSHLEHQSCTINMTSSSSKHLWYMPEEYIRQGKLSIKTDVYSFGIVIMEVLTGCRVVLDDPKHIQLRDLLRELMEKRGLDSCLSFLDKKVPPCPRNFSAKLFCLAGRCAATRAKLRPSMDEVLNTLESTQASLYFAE

[2] = biological target: T2, IRAK2 (Homo sapiens, UniProt O43187); assay: as above; assay type: binding
T2 construct: pseudokinase domain, residues 192-507
T2 sequence (O43187 192-507): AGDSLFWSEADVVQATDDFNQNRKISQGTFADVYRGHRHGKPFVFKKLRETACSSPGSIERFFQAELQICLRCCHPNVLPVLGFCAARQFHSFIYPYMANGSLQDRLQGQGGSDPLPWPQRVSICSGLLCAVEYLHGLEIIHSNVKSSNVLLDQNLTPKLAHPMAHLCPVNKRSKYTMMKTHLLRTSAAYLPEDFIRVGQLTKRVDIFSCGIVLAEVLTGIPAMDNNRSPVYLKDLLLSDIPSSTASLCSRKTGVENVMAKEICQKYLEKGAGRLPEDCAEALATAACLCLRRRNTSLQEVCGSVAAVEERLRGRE

[3] = biological target: the molecule itself; assay: crystal structure; IRAK3_(145-454) at 7-10 mg/mL, 0.1 M citric acid pH 5.0, 1.62 M ammonium sulfate, 20°C, hanging drop; 2.9 Å; three molecules in the asymmetric unit
[4] = biological target: the molecule itself; assay: SEC; analytical gel filtration, Superdex Increase 3.2/300, 20 mM HEPES pH 7.5, 200 mM NaCl, 10% glycerol, 1 mM DTT; 25 μl loaded at 1-5 mg/ml; fractions on SDS-PAGE; monomer to dimer

Molecule: Nc1ncnc2c1ncn2[C@@H]1O[C@H](COP(=O)(O)OP(=O)(O)OP(=O)(O)O)[C@@H](O)[C@H]1O [ATP]
- Kd [1]: ~196 µM
- Kd [2]: 9.8 ± 3.8 µM

B1: IRAK3 pseudokinase domain (residues 145-454), wild type (domain or fragment, human, UniProt Q9Y616 145-454, looked up)
chain: T1 sequence (Q9Y616 145-454)
notes: Interleukin-1 receptor associated kinase 3 (IRAK3), human, pseudokinase domain, residues 145-454; Construct 6His-TEV-GST-3C-IRAK3 145-454; the 6His-GST tag was cut off with PreScission protease; also called IRAK3_(145-454); IRAK3-PK; source: Sf21 insect cells (baculovirus), purified (Ni-NTA, GSH sepharose, PreScission cleavage, gel filtration); not shown: His6, N-terminal, cleaved; GST, …
- stoichiometry N [3]: 2

B2: IRAK3 pseudokinase domain (residues 145-454) E214L (domain or fragment, human, UniProt Q9Y616 145-454, looked up)
chain: T1 sequence (Q9Y616 145-454) with E70L
notes: IRAK3, human, pseudokinase domain, residues 145-454, with E214L; Construct 6His-TEV-GST-3C-IRAK3 145-454 E214L; PDB 6RUU holds the wild-type parent; also called IRAK3_(145-454) E214L; source: Sf21 insect cells (baculovirus), purified (Ni-NTA, GSH sepharose, PreScission cleavage, gel filtration); not shown: His6, N-terminal, cleaved; GST, N-terminal, cleaved
- stoichiometry N [4]: 2
